Experimental data reported in patent US7053064B2, “Compounds for the treatment of tobacco dependence and withdrawal” (The McLean Hospital Corporation, priority 2002, dated 2006).
Where two headings read alike, the source gives them in different places.

How the values were obtained:
human subjects = assay: effects of citicoline on tobacco use (cigarettes smoked per day) versus placebo; assay type: in vivo; details: compared to placebo, FIG. 1
Source text: FIG. 1 is a graph of the effects of citicoline on tobacco use.

[1] = cited from earlier work
[2] = cited from earlier work; remark: listed apart in the source
mammals = details: cited from earlier work
humans = details: cited from earlier work
[3] = major excretion route, % of dose

SMILES: C[N+](C)(C)CCOP(=O)(O)OP(=O)([O-])OC[C@H]1O[C@@H](n2ccc(N)nc2=O)[C@H](O)[C@@H]1O [CDP-choline, cytidine 5′-diphosphocholine]
- usage of tobacco (number of cigarettes smoked per day) (human subjects): reduces the usage of tobacco
- rest of the dose metabolized and retained in tissues ([1]; % of dose): 83.9%
- conversion into circulating metabolites ([1]; administered either orally or intravenously): rapidly converted into the two major circulating metabolites, choline and cytidine
- excretion via lung [1, 3]: 12.9%
- excretion via urine [1, 3]: 2.4%
- CDP-choline and/or its metabolites absorbed ([1]; orally administered): more than 99%
- excreted in feces ([1]; orally administered): less than 1%
- reported cases of overdoses ([2]; in vivo): no reported cases of overdoses
- toxicity symptoms on ingestion of large amounts ([2]; preclinical studies, salivation, lacrimation, urination, defecation, vomiting): common cholinergic symptoms
- tolerability (mammals; mammals): well tolerated

SMILES: CN(CC(=O)O)C(=N)N [Creatine, creatine]
- tolerability (humans): well tolerated at relatively high doses

SMILES: CC(=O)OC[C@H]1O[C@@H](n2ccc(=O)[nH]c2=O)[C@H](OC(C)=O)[C@@H]1OC(C)=O [triacetyl uridine]
- tolerability (mammals; in vivo): well tolerated

SMILES: O=c1ccn([C@@H]2O[C@H](CO)[C@@H](O)[C@H]2O)c(=O)[nH]1 [uridine]
- tolerability (humans): well tolerated
- tolerability (mammals; mammals): well tolerated
